Experimental findings from ChEMBL document CHEMBL3044865, “Herbicidal Activity and Characteristics of Pyraflufen-ethyl for Controlling Broad-leaved Weeds in Cereals” (J Pestic Sci, 2002) are described below.

The test system of assay [1] is Tripleurospermum inodorum. The assay can be described thus: Herbicidal activity against Tripleurospermum maritimum subsp. inodorum assessed as killing measured after 21 days after treatment by post-emergence herbicidal activity assay. Type of assay: functional.
Assay [2] relates to Veronica hederifolia. The assay is described as follows: Herbicidal activity against Veronica hederaefolia assessed as killing measured after 21 days after treatment by post-emergence herbicidal activity assay. Type of assay: functional.
For assay [3], the system named is Galium aparine. The assay can be described thus: Herbicidal activity against Galium aparine assessed as killing measured after 21 days after treatment by post-emergence herbicidal activity assay. Type of assay: functional.
Assay [4] deals with Viola arvensis. The assay is described as follows: Herbicidal activity against Viola arvensis assessed as killing measured after 21 days after treatment by post-emergence herbicidal activity assay. The format is functional.
The target of assay [5] is T1, Protoporphyrinogen oxidase 2 (Spinacia oleracea) (UniProt Q94IG7).
T1 sequence (whole entry): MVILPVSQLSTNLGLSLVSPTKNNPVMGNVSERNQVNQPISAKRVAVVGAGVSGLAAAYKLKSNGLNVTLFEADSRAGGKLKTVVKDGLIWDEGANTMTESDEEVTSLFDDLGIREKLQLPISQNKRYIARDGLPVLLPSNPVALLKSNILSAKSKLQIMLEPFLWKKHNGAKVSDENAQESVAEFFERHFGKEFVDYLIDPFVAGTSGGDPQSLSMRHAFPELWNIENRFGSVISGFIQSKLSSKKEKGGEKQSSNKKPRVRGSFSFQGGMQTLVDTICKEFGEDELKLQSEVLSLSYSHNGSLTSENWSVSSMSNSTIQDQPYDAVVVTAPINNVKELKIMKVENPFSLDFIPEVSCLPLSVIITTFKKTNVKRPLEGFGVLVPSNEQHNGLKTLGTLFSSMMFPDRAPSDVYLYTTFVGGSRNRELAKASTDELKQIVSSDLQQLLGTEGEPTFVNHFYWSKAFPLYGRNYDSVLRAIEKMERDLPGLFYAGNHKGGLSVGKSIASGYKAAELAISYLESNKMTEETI
The assay can be described thus: Inhibition of Stellaria media protoporphyinogen oxidase assessed as herbicidal activity at 100 g/ha measured after 1 days after treatment under greenhouse by time-course analysis.

The subject of assay [6] is Stellaria media. The assay can be described thus: Herbicidal activity against Stellaria media assessed as killing measured after 21 days after treatment by post-emergence herbicidal activity assay. The format is functional.
The target of assay [7] is T1, Protoporphyrinogen oxidase 2 (Spinacia oleracea). The assay can be described thus: Inhibition of Stellaria media protoporphyinogen oxidase assessed as herbicidal activity at 50 g/ha measured after 9 days after treatment under greenhouse by time-course analysis. Details: scale not given: the % may be the effect or the level left.
Assay [8] shares this target. The assay can be described thus: Inhibition of Stellaria media protoporphyinogen oxidase assessed as herbicidal activity at 0.3 g/ha measured after 14 days after treatment under greenhouse by time-course analysis. Details: scale not given: the % may be the effect or the level left.
Assay [9] addresses T2, Protoporphyrinogen oxidase (Medicago truncatula) (UniProt G7L3C0).
T2 sequence (whole entry): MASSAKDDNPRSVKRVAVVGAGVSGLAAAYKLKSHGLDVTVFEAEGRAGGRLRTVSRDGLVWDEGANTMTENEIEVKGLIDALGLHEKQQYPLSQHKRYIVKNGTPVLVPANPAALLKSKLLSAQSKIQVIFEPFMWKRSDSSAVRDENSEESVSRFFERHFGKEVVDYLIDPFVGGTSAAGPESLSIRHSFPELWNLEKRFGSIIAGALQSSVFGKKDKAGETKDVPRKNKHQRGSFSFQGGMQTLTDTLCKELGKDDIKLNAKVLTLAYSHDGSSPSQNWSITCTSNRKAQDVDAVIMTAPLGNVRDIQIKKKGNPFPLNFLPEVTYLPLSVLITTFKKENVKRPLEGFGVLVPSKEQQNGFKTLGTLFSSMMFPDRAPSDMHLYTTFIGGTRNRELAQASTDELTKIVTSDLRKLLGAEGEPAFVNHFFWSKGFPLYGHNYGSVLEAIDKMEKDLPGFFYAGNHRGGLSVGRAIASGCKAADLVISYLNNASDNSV
The assay is described as follows: Inhibition of Viola arvensis protoporphyrinogen oxidase by post-emergence herbicidal activity assay.

In assay [10] the target is T3, Protoporphyrinogen IX oxidase (Cichorium intybus) (UniProt Q9SPL6).
T3 sequence (whole entry): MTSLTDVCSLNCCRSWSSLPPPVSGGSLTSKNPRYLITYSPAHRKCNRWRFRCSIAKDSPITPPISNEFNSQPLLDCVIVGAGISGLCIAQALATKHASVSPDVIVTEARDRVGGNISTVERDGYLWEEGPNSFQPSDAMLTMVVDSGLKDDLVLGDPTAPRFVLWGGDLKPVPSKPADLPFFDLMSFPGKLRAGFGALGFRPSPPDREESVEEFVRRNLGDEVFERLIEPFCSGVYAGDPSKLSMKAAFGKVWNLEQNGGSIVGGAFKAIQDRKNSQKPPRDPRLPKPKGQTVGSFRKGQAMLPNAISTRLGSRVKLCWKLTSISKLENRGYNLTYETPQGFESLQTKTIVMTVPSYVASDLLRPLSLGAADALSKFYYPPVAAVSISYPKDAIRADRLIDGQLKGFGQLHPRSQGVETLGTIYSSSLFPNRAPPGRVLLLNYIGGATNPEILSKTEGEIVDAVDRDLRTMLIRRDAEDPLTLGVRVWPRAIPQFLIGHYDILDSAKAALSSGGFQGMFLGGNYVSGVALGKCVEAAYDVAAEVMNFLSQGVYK
The assay is described as follows: Inhibition of Tripleurospermum maritimum subsp. inodorum protoporphyrinogen oxidase by post-emergence herbicidal activity assay.

Assay [11] addresses T4, Protoporphyrinogen oxidase, chloroplastic (Nicotiana tabacum) (UniProt O24163).
T4 sequence (whole entry): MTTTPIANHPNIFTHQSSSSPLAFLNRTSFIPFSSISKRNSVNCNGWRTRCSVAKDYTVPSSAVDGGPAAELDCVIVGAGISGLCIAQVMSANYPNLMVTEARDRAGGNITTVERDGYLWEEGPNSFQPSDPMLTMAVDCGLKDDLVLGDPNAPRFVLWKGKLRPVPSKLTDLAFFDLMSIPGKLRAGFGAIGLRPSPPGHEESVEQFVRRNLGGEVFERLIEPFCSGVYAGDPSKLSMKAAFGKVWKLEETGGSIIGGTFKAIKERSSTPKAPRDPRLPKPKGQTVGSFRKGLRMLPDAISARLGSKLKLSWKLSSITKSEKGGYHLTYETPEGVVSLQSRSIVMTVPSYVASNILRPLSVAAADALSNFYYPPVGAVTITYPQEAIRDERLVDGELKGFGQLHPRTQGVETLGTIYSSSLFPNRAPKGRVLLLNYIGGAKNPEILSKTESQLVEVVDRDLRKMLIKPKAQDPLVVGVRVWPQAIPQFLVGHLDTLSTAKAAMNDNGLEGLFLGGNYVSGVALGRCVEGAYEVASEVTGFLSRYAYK
The assay can be described thus: Inhibition of Veronica hederaefolia protoporphyrinogen oxidase by post-emergence herbicidal activity assay. The following applies: Veronica hederifolia.

In assay [12] the target is T1, Protoporphyrinogen oxidase 2 (Spinacia oleracea). The assay is described as follows: Inhibition of Stellaria media protoporphyinogen oxidase assessed as herbicidal activity at 100 g/ha measured after 21 days after treatment under greenhouse by time-course analysis. Details: scale not given: the % may be the effect or the level left.
The target of assay [13] is T4, Protoporphyrinogen oxidase, chloroplastic (Nicotiana tabacum). The assay is described as follows: Inhibition of Galium aparine protoporphyrinogen oxidase by post-emergence herbicidal activity assay.
Assay [14] addresses T1, Protoporphyrinogen oxidase 2 (Spinacia oleracea). The assay is described as follows: Inhibition of Stellaria media protoporphyrinogen oxidase by post-emergence herbicidal activity assay.
For assay [15] the target is unchanged. The assay is described as follows: Inhibition of Stellaria media protoporphyinogen oxidase assessed as herbicidal activity at 10 g/ha measured after 21 days after treatment under greenhouse by time-course analysis. Details: scale not given: the % may be the effect or the level left.

Calls of active or inactive are those of the source. The calls are words filed in the database; no cut-off is given here. Where only a bound is given, the exact number is not on record here.

For `Cc1cc(Cl)ccc1O[C@@H](C)C(=O)O` [MECOPROP-P], the ED90 in [1] is 1000 gAi/ha; in [2] it was 300 gAi/ha; in assay [3], 300 gAi/ha; in assay [4], 1000 gAi/ha; in assay [6], 100 gAi/ha. Moreover, in assay [5], the outcome was Active.
For the compound `N#Cc1cc(I)c(O)c(I)c1` [IOXYNIL], the ED90 in [1] stood at 30 gAi/ha; in assay [2], 50 gAi/ha; in assay [3], 100 gAi/ha; in assay [4], 50 gAi/ha; in [6], 50 gAi/ha. Besides, in assay [7], the Activity came out at 90%.
Consider `COC(=O)c1ccccc1S(=O)(=O)NC(=O)Nc1nc(C)nc(OC)n1` [METSULFURON-METHYL], for which the ED90 in [1] is on record as 0.3 gAi/ha; in assay [2] it was 50 gAi/ha; in assay [3] it was over 100 gAi/ha; in assay [4] it was 5 gAi/ha; in [6], 0.3 gAi/ha. The Activity in assay [8] turned out to be 90%.
In the case of `COC(=O)c1cc(Oc2ccc(Cl)cc2Cl)ccc1[N+](=O)[O-]`, the ED90 amounted to 20 gAi/ha in assay [9]; 15 gAi/ha in [10]; 30 gAi/ha in assay [11]; 50 gAi/ha in assay [13]; 100 gAi/ha in [14]. The Activity in assay [12] is under 90%.
Turning to `CCOC(=O)C(Cl)Cc1cc(-n2nc(C)n(C(F)F)c2=O)c(F)cc1Cl` (stereo not given), the ED90 in assay [9] was determined as 5 gAi/ha; in assay [10], 1.5 gAi/ha; in assay [11], 1 gAi/ha; in [13], 1.5 gAi/ha; in assay [14], 10 gAi/ha. In addition, the Activity in assay [15] is over 90%.
